pIC50: −log10 of the molar value.
What was measured:
[1] = Selectivity index, ratio of IC50 for HUVEC to IC50 for human MDA-MB-231 cells
HUVEC = assay: Cytotoxicity against HUVEC assessed as cell viability after 48 hrs by MTT assay; assay type: cell-based; conditions: Homo sapiens
A549 [2] = assay: Antiproliferative activity against human A549 cells assessed as cell viability after 72 hrs by MTT assay; assay type: functional, cell-based; conditions: A549, 72 h
MDA-MB-231 = assay: Antiproliferative activity against human MDA-MB-231 cells assessed as cell viability after 72 hrs by MTT assay; assay type: functional, cell-based; conditions: MDA-MB-231, 72 h
HeLa [3] = assay: Selectivity index, ratio of IC50 for HUVEC to IC50 for human HeLa cells
MCF7 [4] = assay: Selectivity index, ratio of IC50 for HUVEC to IC50 for human MCF7 cells
Jurkat [5] = assay: Antiproliferative activity against human Jurkat cells assessed as cell viability after 72 hrs by MTT assay; assay type: functional, cell-based
Jurkat [6] = assay: Selectivity index, ratio of IC50 for HUVEC to IC50 for human Jurkat cells
MCF7 [7] = assay: Antiproliferative activity against human MCF7 cells assessed as cell viability after 72 hrs by MTT assay; assay type: functional, cell-based; conditions: MCF7, 72 h
A549 [8] = assay: Selectivity index, ratio of IC50 for HUVEC to IC50 for human A549 cells
CCRF-CEM [9] = assay: Selectivity index, ratio of IC50 for HUVEC to IC50 for human CCRF-CEM cells
HeLa [10] = assay: Antiproliferative activity against human HeLa cells assessed as cell viability after 72 hrs by MTT assay; assay type: functional, cell-based
CCRF-CEM [11] = assay: Antiproliferative activity against human CCRF-CEM cells assessed as cell viability after 72 hrs by MTT assay; assay type: functional, cell-based

Compound: c1ccc(NC2=NCc3c([nH]c4ccccc34)S2)cc1
- Ratio IC50 [1]: >8
- pIC50 (HUVEC): < 4.00
- pIC50 (A549 [2]): 4.47
- pIC50 (MDA-MB-231): 4.91
- Ratio IC50 (HeLa [3]): >3.7
- Ratio IC50 (MCF7 [4]): 3
- pIC50 (Jurkat [5]): 5.02
- Ratio IC50 (Jurkat [6]): >10
- pIC50 (MCF7 [7]): 4.50
- Ratio IC50 (A549 [8]): >2.9
- Ratio IC50 (CCRF-CEM [9]): >11
- pIC50 (HeLa [10]): 4.57
- pIC50 (CCRF-CEM [11]): 5.05

Compound: COc1ccc(/C=C\c2cc(OC)c(OC)c(OC)c2)cc1O [COMBRETASTATIN A4]
- pIC50 (HUVEC): 8.30
- Ratio IC50 (MCF7 [4]): 2

Compound: CNC1=NC[C@]2(S1)c1ccccc1N(C(=O)OC(C)(C)C)[C@H]2OC (racemic)
- pIC50 (A549 [2]): < 4.00
- pIC50 (MDA-MB-231): < 4.00
- pIC50 (Jurkat [5]): 4.38
- pIC50 (MCF7 [7]): < 4.00
- pIC50 (HeLa [10]): < 4.00
- pIC50 (CCRF-CEM [11]): 4.28

Compound: CSC(=S)NCc1cn(C(=O)OC(C)(C)C)c2ccccc12
- pIC50 (A549 [2]): 4.67
- pIC50 (MDA-MB-231): 4.67
- pIC50 (Jurkat [5]): 4.75
- pIC50 (MCF7 [7]): 4.64
- pIC50 (HeLa [10]): 4.77
- pIC50 (CCRF-CEM [11]): 4.71

Compound: CO[C@@H]1N(C(=O)OC(C)(C)C)c2ccccc2[C@@]12CN=C(Nc1cc(C(F)(F)F)cc(C(F)(F)F)c1)S2 (racemic)
- pIC50 (A549 [2]): 4.54
- pIC50 (MDA-MB-231): 4.41
- pIC50 (Jurkat [5]): 4.67
- pIC50 (MCF7 [7]): 4.68
- pIC50 (HeLa [10]): 4.47
- pIC50 (CCRF-CEM [11]): 4.76

Compound: CC(C)(C)OC(=O)n1cc(CNC(=S)Nc2ccccc2)c2ccccc21
- pIC50 (A549 [2]): 5.18
- pIC50 (MDA-MB-231): 4.55
- pIC50 (Jurkat [5]): 5.51
- pIC50 (MCF7 [7]): 6.14
- pIC50 (HeLa [10]): 4.69
- pIC50 (CCRF-CEM [11]): 4.04

Compound: CSC(=S)NCc1c[nH]c2ccccc12 [BRASSININ]
- pIC50 (A549 [2]): < 4.00
- pIC50 (MDA-MB-231): < 4.00
- pIC50 (Jurkat [5]): < 4.00
- pIC50 (MCF7 [7]): < 4.00
- pIC50 (HeLa [10]): < 4.00
- pIC50 (CCRF-CEM [11]): 4.04

Compound: CNC(=S)NCc1cn(C(=O)OC(C)(C)C)c2ccccc12
- pIC50 (A549 [2]): < 4.00
- pIC50 (MDA-MB-231): < 4.00
- pIC50 (Jurkat [5]): < 4.00
- pIC50 (MCF7 [7]): < 4.00
- pIC50 (HeLa [10]): < 4.00
- pIC50 (CCRF-CEM [11]): < 4.00

Compound: COc1ccc(NC(=S)NCc2cn(C(=O)OC(C)(C)C)c3ccccc23)cc1
- pIC50 (A549 [2]): < 4.00
- pIC50 (MDA-MB-231): < 4.00
- pIC50 (Jurkat [5]): 4.52
- pIC50 (MCF7 [7]): 4.04
- pIC50 (HeLa [10]): 4.47
- pIC50 (CCRF-CEM [11]): 4.66

Compound: CO[C@H]1N(C(=O)OC(C)(C)C)c2ccccc2[C@@]12CN=C(Nc1ccc([N+](=O)[O-])cc1)S2 (racemic)
- pIC50 (A549 [2]): 4.48
- pIC50 (MDA-MB-231): 4.43
- pIC50 (Jurkat [5]): 4.69
- pIC50 (MCF7 [7]): 4.48
- pIC50 (HeLa [10]): 4.50
- pIC50 (CCRF-CEM [11]): 4.74

Compound: COc1cccc2c1C(=O)c1c(O)c3c(c(O)c1C2=O)C[C@@](O)(C(=O)CO)C[C@@H]3O[C@H]1C[C@H](N)[C@H](O)[C@H](C)O1 [DOXORUBICIN]
- pIC50 (HUVEC): 7.09

Compound: CO[C@@H]1N(C(=O)OC(C)(C)C)c2ccccc2[C@@]12CN=C(N1CCOCC1)S2 (racemic)
- pIC50 (A549 [2]): < 4.00
- pIC50 (MDA-MB-231): < 4.00
- pIC50 (Jurkat [5]): 4.46
- pIC50 (MCF7 [7]): 4.16
- pIC50 (HeLa [10]): 4.12
- pIC50 (CCRF-CEM [11]): 4.44

Compound: CN(C1=NC[C@]2(S1)c1ccccc1N(C(=O)OC(C)(C)C)[C@@H]2O)c1ccccc1 (racemic)
- pIC50 (A549 [2]): < 4.00
- pIC50 (MDA-MB-231): < 4.00
- pIC50 (Jurkat [5]): 5.28
- pIC50 (MCF7 [7]): 5.57
- pIC50 (HeLa [10]): < 4.00
- pIC50 (CCRF-CEM [11]): 4.19

Compound: CC(C)(C)OC(=O)n1cc(CNC(=S)NC2CCCCC2)c2ccccc21
- pIC50 (A549 [2]): 4.47
- pIC50 (MDA-MB-231): 4.43
- pIC50 (Jurkat [5]): 4.96
- pIC50 (MCF7 [7]): 4.67
- pIC50 (HeLa [10]): 5.10
- pIC50 (CCRF-CEM [11]): 5.15

Compound: CO[C@@H]1N(C(=O)OC(C)(C)C)c2ccccc2[C@@]12CN=C(Nc1ccccc1)S2 (racemic)
- pIC50 (A549 [2]): 4.47
- pIC50 (MDA-MB-231): 4.47
- pIC50 (Jurkat [5]): 4.72
- pIC50 (MCF7 [7]): 4.49
- pIC50 (HeLa [10]): 4.55
- pIC50 (CCRF-CEM [11]): 4.66

Compound: CO[C@H]1N(C(=O)OC(C)(C)C)c2ccccc2[C@@]12CN=C(SC)S2 (racemic)
- pIC50 (A549 [2]): 4.15
- pIC50 (MDA-MB-231): 4.06
- pIC50 (Jurkat [5]): 4.43
- pIC50 (MCF7 [7]): 4.15
- pIC50 (HeLa [10]): 4.13
- pIC50 (CCRF-CEM [11]): 4.42

Compound: CSC1=NC[C@]2(S1)c1ccccc1N(C(=O)OC(C)(C)C)[C@H]2O (racemic)
- pIC50 (A549 [2]): 4.00
- pIC50 (MDA-MB-231): 4.02
- pIC50 (Jurkat [5]): 4.53
- pIC50 (MCF7 [7]): 4.00
- pIC50 (HeLa [10]): 4.03
- pIC50 (CCRF-CEM [11]): 4.57

Compound: CNC1=NCc2c([nH]c3ccccc23)S1
- pIC50 (A549 [2]): 4.36
- pIC50 (MDA-MB-231): 4.46
- pIC50 (Jurkat [5]): 5.28
- pIC50 (MCF7 [7]): 4.36
- pIC50 (HeLa [10]): 4.17
- pIC50 (CCRF-CEM [11]): 5.33

Compound: CON1c2ccccc2C2(CN=C(SC)S2)C1O (racemic)
- pIC50 (A549 [2]): 4.00
- pIC50 (MDA-MB-231): 4.00
- pIC50 (Jurkat [5]): 4.00
- pIC50 (MCF7 [7]): 4.00
- pIC50 (HeLa [10]): 4.00
- pIC50 (CCRF-CEM [11]): 4.00

Compound: CO[C@H]1N(C(=O)OC(C)(C)C)c2ccccc2[C@@]12CN=C(Nc1ccc(Br)cc1)S2 (racemic)
- pIC50 (A549 [2]): 4.48
- pIC50 (MDA-MB-231): 4.50
- pIC50 (Jurkat [5]): 5.10
- pIC50 (MCF7 [7]): 4.53
- pIC50 (HeLa [10]): 4.55
- pIC50 (CCRF-CEM [11]): 5.30

Compound: CO[C@H]1N(C(=O)OC(C)(C)C)c2ccccc2[C@@]12CN=C(Nc1ccc(C(F)(F)F)cc1)S2 (racemic)
- pIC50 (A549 [2]): 4.61
- pIC50 (MDA-MB-231): 4.54
- pIC50 (Jurkat [5]): 5.03
- pIC50 (MCF7 [7]): 4.58
- pIC50 (HeLa [10]): 4.49
- pIC50 (CCRF-CEM [11]): 5.14

Compound: c1ccc2c3c([nH]c2c1)SC(NC1CCCCC1)=NC3
- pIC50 (A549 [2]): 4.26
- pIC50 (MDA-MB-231): 4.51
- pIC50 (Jurkat [5]): 5.28
- pIC50 (MCF7 [7]): 4.19
- pIC50 (HeLa [10]): 4.19
- pIC50 (CCRF-CEM [11]): 5.41

Compound: CC(C)(C)OC(=O)n1cc(CNC(=S)N2CCCCC2)c2ccccc21
- pIC50 (A549 [2]): 4.22
- pIC50 (MDA-MB-231): < 4.00
- pIC50 (Jurkat [5]): 4.42
- pIC50 (MCF7 [7]): < 4.00
- pIC50 (HeLa [10]): 4.43
- pIC50 (CCRF-CEM [11]): 4.43

Compound: CO[C@H]1N(C(=O)OC(C)(C)C)c2ccccc2[C@@]12CN=C(Nc1ccc(C)cc1)S2 (racemic)
- pIC50 (A549 [2]): 4.50
- pIC50 (MDA-MB-231): 4.45
- pIC50 (Jurkat [5]): 4.59
- pIC50 (MCF7 [7]): 4.48
- pIC50 (HeLa [10]): 4.69
- pIC50 (CCRF-CEM [11]): 4.84

Compound: COc1cc([C@@H]2c3cc4c(cc3[C@@H](O[C@@H]3O[C@@H]5CO[C@@H](C)O[C@H]5[C@H](O)[C@H]3O)[C@H]3COC(=O)[C@H]23)OCO4)cc(OC)c1O [ETOPOSIDE]
- Ratio IC50 [1]: 0.06
- pIC50 (HUVEC): 5.90
- Ratio IC50 (HeLa [3]): 0.32
- Ratio IC50 (MCF7 [4]): 0.11
- Ratio IC50 (Jurkat [6]): 1.04
- Ratio IC50 (A549 [8]): 0.09
- Ratio IC50 (CCRF-CEM [9]): 1.14

Compound: COn1cc(CNC(=S)SC)c2ccccc21 [1-METHOXYBRASSININ]
- pIC50 (A549 [2]): < 4.00
- pIC50 (MDA-MB-231): < 4.00
- pIC50 (Jurkat [5]): 4.43
- pIC50 (MCF7 [7]): < 4.00
- pIC50 (HeLa [10]): < 4.00
- pIC50 (CCRF-CEM [11]): 4.20

Compound: CNC1=NC[C@]2(S1)c1ccccc1N(C(=O)OC(C)(C)C)[C@@H]2OC (racemic)
- pIC50 (A549 [2]): < 4.00
- pIC50 (MDA-MB-231): < 4.00
- pIC50 (Jurkat [5]): 4.08
- pIC50 (MCF7 [7]): < 4.00
- pIC50 (HeLa [10]): < 4.00
- pIC50 (CCRF-CEM [11]): 4.35

Compound: CC(C)(C)OC(=O)n1cc(CNC(=S)Nc2cc(C(F)(F)F)cc(C(F)(F)F)c2)c2ccccc21
- pIC50 (A549 [2]): 5.44
- pIC50 (MDA-MB-231): 5.39
- pIC50 (Jurkat [5]): 5.44
- pIC50 (MCF7 [7]): 5.46
- pIC50 (HeLa [10]): 5.18
- pIC50 (CCRF-CEM [11]): 5.54

Compound: CC(C)(C)OC(=O)n1cc(CNC(=S)N2CCOCC2)c2ccccc21
- pIC50 (A549 [2]): < 4.00
- pIC50 (MDA-MB-231): < 4.00
- pIC50 (Jurkat [5]): 4.02
- pIC50 (MCF7 [7]): < 4.00
- pIC50 (HeLa [10]): 4.10
- pIC50 (CCRF-CEM [11]): < 4.00

Source: ChEMBL document CHEMBL2440045, “The synthesis and anticancer activity of analogs of the indole phytoalexins brassinin, 1-methoxyspirobrassinol methyl ether and cyclobrassinin” (Bioorg Med Chem, 2013)
